# Reference: article PMC9491549, “Reverse mutants of the catalytic 19 kDa mutant protein (nanoKAZ/nanoLuc) from Oplophorus luciferase with coelenterazine as preferred substrate” (PLoS ONE, 2022)
# Legend:
# [1] = target: T1, Gaussia luciferase (GLase) (Gaussia princeps (in: crustaceans), UniProt Q9BLZ2); assay: luminescence inhibition with coelenterazine; format: biochemical; conditions: coelenterazine 1.2 × 10^−4 M (so in the source); 1 μg each in 200 μL), 30 mM Tris-HCl, 10 mM EDTA, 1 min preincubation; no inhibitor = 100
# T1 construct: C-terminal His tag, signal peptide removed by secretion; stably expressed in CHO-K1/dhfr- cells (pcDNA3-hGL-H), Ni column
# T1 sequence (Q9BLZ2 18-185): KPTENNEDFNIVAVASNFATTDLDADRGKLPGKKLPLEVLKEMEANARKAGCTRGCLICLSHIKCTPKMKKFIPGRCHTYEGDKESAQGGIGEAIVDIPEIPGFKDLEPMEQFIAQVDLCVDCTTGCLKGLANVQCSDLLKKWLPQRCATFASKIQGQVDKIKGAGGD
# Source text: luminescence inhibition with coelenterazine on Gaussia luciferase (GLase)
# [2] = target: T2, native Oplophorus luciferase (OpLase) (Oplophorus gracilirostris, UniProt Q9GV45); assay: luminescence inhibition with coelenterazine; format: biochemical; conditions: coelenterazine 1.2 × 10^−4 M (so in the source); 1 μg each in 200 μL), 30 mM Tris-HCl, 10 mM EDTA, 1 min preincubation; no inhibitor = 100
# T2 construct: 19 kDa and 35 kDa subunits, 106 kDa; with Oplophorus-luciferin 2-monooxygenase non-catalytic subunit
# T2 sequence (Q9GV45 28-196): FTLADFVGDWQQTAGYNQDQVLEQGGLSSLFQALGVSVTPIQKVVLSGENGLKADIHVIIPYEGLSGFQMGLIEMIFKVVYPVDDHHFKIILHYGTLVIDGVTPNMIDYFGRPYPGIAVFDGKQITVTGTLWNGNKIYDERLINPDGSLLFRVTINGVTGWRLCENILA
# T2 sequence (Q9GV46 40-359 partner): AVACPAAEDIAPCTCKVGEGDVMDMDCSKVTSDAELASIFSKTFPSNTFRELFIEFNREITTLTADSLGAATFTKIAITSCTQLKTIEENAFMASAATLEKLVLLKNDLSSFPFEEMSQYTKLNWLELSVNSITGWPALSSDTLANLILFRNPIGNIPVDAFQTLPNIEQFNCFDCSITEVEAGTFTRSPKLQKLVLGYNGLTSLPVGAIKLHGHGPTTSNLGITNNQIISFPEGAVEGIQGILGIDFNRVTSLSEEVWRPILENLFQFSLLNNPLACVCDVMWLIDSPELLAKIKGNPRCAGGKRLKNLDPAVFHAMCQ
# Source text: luminescence inhibition with coelenterazine on native Oplophorus luciferase (OpLase)
Structure (SMILES),"Relative luminescence activity (Imax, %) / GLase ^a [1] [%]","Relative luminescence activity (Imax, %) / OpLase ^a [2] [%]","Relative luminescence activity (Imax, %) / QL-nanoKAZ ^a [1] [%]"
O=C1c2cc(-c3ccc(O)cc3)cc(Cc3ccccc3)c2C[C@@]1(CO)Cc1ccc(O)cc1 [(R)-HM-daCTZ],23.5,33.5,–
O=C1c2cc(-c3ccc(O)cc3)cc(Cc3ccccc3)c2C[C@H]1Cc1ccc(O)cc1 [(R)-daCTZ],0.5,5.1,–
O=C1c2cc(-c3ccc(O)cc3)cc(Cc3ccccc3)c2C[C@]1(CO)Cc1ccc(O)cc1 [(S)-HM-daCTZ],5.3,19.7,–
O=C1c2cc(-c3ccc(O)cc3)cc(Cc3ccccc3)c2C[C@@H]1Cc1ccc(O)cc1 [(S)-daCTZ],–,2.1,0.4
